Structures are written as SMILES. Like-named read-outs stand apart in the source and are kept apart here.

The test system of assay [1] is Tau phosphorylation at Ser396 (pSer396), SH-SY5Y cells. Kind of assay: Tau phosphorylation at Ser396 (pSer396) in SH-SY5Y cells, ELISA/western blot.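 Further: cell lysates probed for reduced Tau pSer396 via ELISA (colorimetric) or western blot (chemiluminescence), both with one shared pSer396 antibody, EC50 for lowering phosphorylation.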 Format: cell-based, human. The note with it: Homo sapiens; SH-SY5Y cells, overnight (16-18 h); read-out: pSer396 Tau EC50. For orientation: An ELISA detects its analyte on a solid surface through an enzyme-linked reagent.

Assay [2] concerns LL29 cells (primary human fibroblasts derived from IPF patients), α-smooth muscle actin. Kind of assay: Inhibition of fibrotic process: αSMA in TGF-β1-treated primary human fibroblasts from IPF patients (LL29 cells). Format: cell-based. The note with it: Homo sapiens, Fibroblast; for EC50: 96 h, % αSMA-positive LL29 cells, TGF-β1 20 ng/mL, 4 days; for inhibition at 10 µM: read-out: percent inhibition at 10 μM. The text has this: Representative compounds were screened using primary human fibroblasts (derived from IPF patients) treated with TGF-β1 to determine their ability to inhibit the fibrotic process.
Primary human fibroblasts derived from IPF patients (LL29 cells) [^1Xiaoqiu Liu, et. al., “Fibrotic Lung Fibroblasts Show Blunted Inhibition by cAMP Due to Deficient cAMP Response Element-Binding Protein Phosphorylation”, Journal of Pharmacology and Experimental Therapeutics (2005), 315(2), 678-687; ^2Watts, K. L., et. al., “RhoA signaling modulates cyclin D1 expression in human lung fibroblasts; implications for idiopathic pulmonary fibrosis”, Respiratory Research (2006), 7(1), 88] were obtained from American Type Culture Collection (ATCC) and expanded in F12 medium supplemented with 15% Fetal Bovine Serum and 1% Penicillin/Streptomycin.
Each compound was dissolved in DMSO as a 10 mM stock and used to prepare compound source plates. Serial dilution (1:2, 11-point dose-response curves from […] to 0.94 nM) and compound transfer was performed using the ECHO 550 (Labcyte, Sunnyvale, Calif.) into 384-well clear bottom assay plates (Greiner Bio-One) with appropriate DMSO backfill for a final DMSO concentration of 0.1%. LL29 cells were plated at 1,500 cells/well in 70 μL/well F12 medium supplemented with 1% Fetal Bovine Serum. TGF-β1 (Peprotech; 20 ng/mL) was added to the plates to induce fibrosis (ref. 1 and 2 above). Wells treated with TGF-31 and containing DMSO were used as positive control, and cells with only DMSO were negative control. Cells were incubated at 37° C. and 5% CO2 for 4 days. Following incubation for 4 days, SYTOX green nucleic acid stain (Life Technologies [Thermo Fisher Scientific]) was added to the wells at a final concentration of 1 μM and incubated at room temperature for 30 min. Cells were then fixed using 4% formaldehyde (Electron Microscopy Sciences), washed 3 times with PBS followed by blocking and permeabilization using 3% Bovine Serum Albumin (BSA; Sigma) and 0.3% Triton X-100 (Sigma) in PBS. Cells were then stained with antibody specific to α-smooth muscle actin (αSMA; Abcam) (ref. 1 and 2 above) in 3% Bovine Serum Albumin (BSA; Sigma) and 0.3% Triton X-100 (Sigma) in PBS, and incubated overnight at 4° C. Cells were then washed 3 times with PBS, followed by incubation with Alexa Flor-647 conjugated secondary antibody (Life Technologies [Thermo Fisher Scientific]) and DAPI in 3% Bovine Serum Albumin (BSA; Sigma) and 0.3% Triton X-100 (Sigma) in PBS at room temperature for 1 hour. Cells were then washed 3 times with PBS and plates were sealed for imaging. αSMA staining was imaged by excitation at 630 nm and emission at 665 nm and quantified using the Compartmental Analysis program on the CellInsight CX5 (Thermo Scientific). Dead or apoptotic cells were excluded from analysis based on positive SYTOX green staining. % of total cells positive for αSMA were counted in each well and normalized to the average of 11 wells treated with TGF-β1 on the same plate using Dotmatics' Studies Software.

The target of assay [3] is DYRK1A kinase (Homo sapiens (Human), UniProt Q13627). The assay can be described thus: DYRK1A kinase assay (Ser/Thr 18 peptide Z-lyte, FRET).
Assay [4] relates to IL-6. The assay can be described thus: IL-6 inhibition in LPS-stimulated human peripheral blood mononuclear cells (HTRF). Format: cell-based. The settings on record: Homo sapiens, PBMC; for EC50: IL-6, LPS-stimulated huPBMCs, HTRF; for inhibition at 10 µM: read-out: percent value in parentheses below EC50 >10. On the procedure: Fresh Normal PB MNC (Catalog # PB001, AllCells, Alameda, Calif.) were shipped overnight at 4° C. and resuspended in Roswell Park Memorial Institute (RPMI) 1640 Medium, with GlutaMAX Supplement (Catalog #61870127, ThermoFisher Scientific, Waltham, Mass.) supplemented with 1% Penicillin-Streptomycin (Catalog #151401633 ThermoFisher Scientific, Waltham, Mass.) and 1% fetal bovine serum (FBS) (Catalog #16140089, ThermoFisher Scientific, Waltham, Mass.) assay media.
Fresh normal human peripheral blood mononuclear cells (huPBMCs) were resuspended in 1% FBS-RPMI assay media with 1% Penicillin-Streptomycin 1% to a cell concentration of 1×10e6 cells/mL. Each compound was dissolved in DMSO (Catalog # D8418-100 ml, Sigma-Aldrich, St. Louis, Mo.) as a 10 mM stock and used to prepare compound source plates. Serial dilution (1:3, 10-point dose-response curves starting from 10 μM) and compound transfer was performed using the ECHO 550 (Labcyte, Sunnyvale, Calif.) into 384-well white Proxiplate-Plus assay plates (Catalog #6008289, PerkinElmer, Shelton, Conn.) with appropriate DMSO backfill for a final DMSO concentration of 0.25%. huPBMCs were plated at 5000 cells/well in the 384-well Proxiplate-Plus assay plates and incubated at 37° C.-5% CO2 for 2 hours. 50 ng/mL of Lipopolysaccharides from Escherichia coli 0111:B4 (Catalog # L5293-2 ML, Sigma-Aldrich, St. Louis, Mo.) was added after 2 hours and cells were incubated for another 22 hours at 37° C.-5% CO2. After 22 hour incubation, a mixture of anti-IL6 XL665 and anti-IL-6 Cryptate diluted in reconstitution buffer (Catalog #62IL6PEC, Cisbio Inc., Bedford, Mass.) was added to each well. Following incubation for 3 hours at room temperature, Homogeneous Time-Resolved Fluorescence (HTRF) was measured using the Envision (Perkin Elmer, Shelton, Conn.) at 665 nm and […]. The ratio of fluorescence at 665 nm to 620 nm was used as a readout for IL-6 quantification. All samples were processed in duplicate. Readings were normalized to DMSO treated cells and normalized activities were utilized for EC50 calculations. EC50 was determined using software generated by Dotmatics Limited (Windhill Bishops Stortford Herts, UK) using the Levenberg-Marquardt 4 parameter fitting procedure with finite different gradients.
(In general: Time-resolved FRET reads energy transfer from a long-lived donor to a nearby acceptor.)

Assay [5] deals with GSK3β kinase (Homo sapiens (Human), UniProt P49841). Kind of assay: GSK3β kinase assay (Ser/Thr 09 peptide Z-lyte, FRET).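 Further: Coumarin/fluorescein emission ratio converted to percent phosphorylation against unphosphorylated (0%) and phosphorylated (100%) controls, 1 h compound incubation at room temperature, 11-point threefold dilutions from 10 µM, run in duplicate.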 The assay is classed as biochemical. The settings on record: method text calls the value IC50.
In assay [6] the test system is SW480 colon carcinoma cells. The assay can be described thus: Cell viability assay (CellTiter-Glo) in SW480 cells.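 On all read-outs here: SW480 cells stably carrying an Sp5-luciferase TCF/LEF reporter, luminescent ATP signal as viability measure, DMSO-treated cells as control.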 Format: cell-based, human. The settings on record: Homo sapiens; for EC50: 96 h, cell viability, SW480 cells, four days, CellTiter-Glo. In general terms: In ATP-based viability assays light output follows the ATP content of the culture.
The test system of assay [7] is Wnt activity (Sp5-Luc reporter in SW480 colon carcinoma cells). Kind of assay: Wnt activity screening assay (Sp5-Luc reporter gene assay). The assay is classed as cell-based, human. The settings on record: Homo sapiens; Sp5-Luc reporter, SW480 cells, 36 to 48 hours. The source says:
The screening assay for Wnt activity is described as follows. Reporter cell lines can be generated by stably transducing cancer cell lines (e.g., colon cancer) or primary cells (e.g., IEC-6 intestinal cells) with a lentiviral construct that includes a Wnt-responsive promoter driving expression of the firefly luciferase gene.
SW480 colon carcinoma cells were transduced with a lentiviral vector expressing luciferase with a human Sp5 promoter consisting of a sequence of eight TCF/LEF binding sites. SW480 cells stably expressing the Sp5-Luc reporter gene and a hygromycin resistance gene were selected by treatment with 150 μg/mL of hygromycin for 7 days. These stably transduced SW480 cells were expanded in cell culture and used for all further screening activities. Each compound was dissolved in DMSO as a 10 mM stock and used to prepare compound source plates. Serial dilution (1:3, 10-point dose-response curves starting from 10 μM) and compound transfer was performed using the ECHO 550 (Labcyte, Sunnyvale, Calif.) into 384-well white solid bottom assay plates (Greiner Bio-One) with appropriate DMSO backfill for a final DMSO concentration of 0.1%. For Sp5-Luc reporter gene assays, the cells were plated at 4,000 cells/well in 384-well plates with a DMEM medium containing 1% fetal bovine serum, and 1% Penicillin-Streptomycin and incubated for 36 to 48 hours at 37° C. and 5% CO2. Following incubation, 15 μl of BriteLite Plus luminescence reagent (Perkin Elmer) was added to each well of the 384-well assay plates. The plates were placed on an orbital shaker for 2 min and then luminescence was quantified using the Envision (Perkin Elmer) plate reader. Readings were normalized to DMSO only treated cells, and normalized activities were utilized for EC50 calculations using the dose-response log (inhibitor) vs. response -variable slope (four parameters) nonlinear regression feature available in GraphPad Prism 5.0 (or Dotmatics).

Where [8] appears, read: DYRK1A kinase, method text calls the value IC50.

Chain of GSK3β kinase (P49841 whole entry): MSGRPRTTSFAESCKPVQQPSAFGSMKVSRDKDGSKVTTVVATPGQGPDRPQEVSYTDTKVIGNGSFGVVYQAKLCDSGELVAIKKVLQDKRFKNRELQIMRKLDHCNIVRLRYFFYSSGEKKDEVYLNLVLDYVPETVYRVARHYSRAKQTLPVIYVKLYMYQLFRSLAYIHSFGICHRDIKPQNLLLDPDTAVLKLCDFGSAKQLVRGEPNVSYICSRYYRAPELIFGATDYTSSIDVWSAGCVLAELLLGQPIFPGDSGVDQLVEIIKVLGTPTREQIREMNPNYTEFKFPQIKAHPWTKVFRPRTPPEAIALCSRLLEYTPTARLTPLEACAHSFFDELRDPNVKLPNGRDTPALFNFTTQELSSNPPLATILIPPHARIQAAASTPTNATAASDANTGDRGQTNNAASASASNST

A word on the EC50: it is the concentration that produces a half-maximal response. Turning to `Cn1cc(-c2cc3cc(NC(=O)[C@H]4CC[C@H](N(C)C)CC4)ncc3cc2F)cn1` [Compound 2, trans-4-(Dimethylamino)-N-(7-fluoro-6-(1-methyl-1H-pyrazol-4-yl)isoquinolin-3-yl)cyclohexane-1-carboxamide], the EC50 came out at 559 nM in assay [1]; 150 nM in assay [2]; 4 nM in assay [3] (setting [8]); 1280 nM in assay [4]; 246 nM in assay [5]; 4450 nM in assay [6]. The same compound showed an EC50 in assay [7] of 799 nM.
For `Cn1cc(-c2cc(F)c3cnc(NC(=O)[C@H]4CC[C@H](N5CCOCC5)CC4)cc3c2)cn1` [Compound 3, trans-N-(8-Fluoro-6-(1-methyl-1H-pyrazol-4-yl)isoquinolin-3-yl)-4-morpholinocyclohexane-1-carboxamide], the EC50 is 458 nM in assay [1]; 153 nM in assay [2]; 4 nM in assay [3] (setting [8]); 1120 nM in assay [4]; 131 nM in assay [5]; 6670 nM in assay [6]. In addition, in assay [7], a half-maximal effect (EC50) was put at 1860 nM.
For `CC(C)CN1CCC(CC(=O)Nc2cc3cc(-c4cnn(C)c4)ccc3cn2)C1` (stereo not shown) [Compound 4, 2-(1-Isobutylpyrrolidin-3-yl)-N-(6-(1-methyl-1H-pyrazol-4-yl)isoquinolin-3-yl)acetamide], the EC50 in assay [1] worked out at 69 nM; in assay [2], 229 nM; in assay [3] (setting [8]), 4 nM; in assay [4], 489 nM; in assay [5], 22 nM; in assay [6] it was 907 nM. This compound also yielded an EC50 in assay [7] of 730 nM.
For `[2H]c1c(NC(=O)C2CCNCC2)ncc2ccc(-c3cnn(C)c3)cc12` [Compound 5, N-(6-(1-Methyl-1H-pyrazol-4-yl)isoquinolin-3-yl-4-d)piperidine-4-carboxamide], the EC50 was determined as 511 nM in assay [1]; 113 nM in assay [2]; 3 nM in assay [3]; 1050 nM in assay [4]; 115 nM in assay [5]; 738 nM in assay [6]. In assay [7], this compound registered an EC50 of 917 nM.
On to `Cn1cc(-c2cc(F)c3cnc(NC(=O)[C@H]4CC[C@H](N(C)C)CC4)cc3c2)nn1` [Compound 10, trans-4-(Dimethylamino)-N-(8-fluoro-6-(1-methyl-1H-1,2,3-triazol-4-yl)isoquinolin-3-yl)cyclohexane-1-carboxamide], for which the EC50 in assay [1] came out at 119 nM; in assay [2], 208 nM; in assay [3] (setting [8]), 4 nM; in assay [4], 9220 nM; in assay [5] it was 18 nM; in assay [6] it was 719 nM. In addition, it took 923 nM to reach a half-maximal effect in assay [7] (EC50).
As for `Cn1cc(-c2ccc3cnc(NC(=O)CN4CCOCC4)cc3c2)nn1` [Compound 11, N-(6-(1-Methyl-1H-1,2,3-triazol-4-yl)isoquinolin-3-yl)-2-morpholinoacetamide], the EC50 in assay [1] is 190 nM; in assay [2] it was above 10000 nM; in assay [3] (setting [8]), 10 nM; in assay [4], above 10000 nM; in assay [5] it was 10 nM; in assay [6] it was above 10000 nM. In addition, a half-maximal effect in assay [7] (EC50) was put at 2810 nM. Moreover, the inhibition at 10 µM came to 3.8% in assay [2]; 38.4% in assay [4]; 46.3% in assay [6] (SW480, read-out: percent inhibition at 10 μM).
`Cc1nc(-c2ccc3cnc(NC(=O)[C@H]4CC[C@H](N5CCN(C)CC5)CC4)cc3c2)co1` [Compound 12, trans-N-(6-(2-Methyloxazol-4-yl)isoquinolin-3-yl)-4-(4-methylpiperazin-1-yl)cyclohexane-1-carboxamide]: the EC50 in assay [1] turned out to be 436 nM; in assay [2], 102 nM; in assay [3] (setting [8]), 16 nM; in assay [4] it was 1120 nM; in assay [5] it was 189 nM; in assay [6], 713 nM. Moreover, in assay [7], the EC50 came out at 943 nM.
As for `Cc1ncc(-c2ccc3cnc(NC(=O)N4CCOCC4)cc3c2)n1C` [Compound 13, N-(6-(1,2-Dimethyl-1H-imidazol-5-yl)isoquinolin-3-yl)morpholine-4-carboxamide], the EC50 was 4700 nM in assay [1]; above 10000 nM in assay [2]; 13 nM in assay [3] (setting [8]); above 10000 nM in assay [4]; 1250 nM in assay [5]; 3510 nM in assay [6]. Further, a half-maximal effect in assay [7] (EC50) was put at 3700 nM. The inhibition at 10 µM in assay [2] is 38.2%; in assay [4], 17.6%.

Values taken from patent publication US10604514B2, “6-(5-membered heteroaryl)isoquinolin-3-yl carboxamides and preparation and use thereof” (Samumed, LLC, priority 2017, dated 2020).
